Reference: patent US20220211614A1, “COMPOSITIONS AND IMPLANTABLE DEVICES” (Commonwealth Scientific and Industrial Research Organisation, priority 2019, published 2022)
Values belong to the compound of their own block, whether it stands above or below them. No end group written: not given here.

Assays:
[1] = cited from earlier work
[2] = target: relaxin family peptide receptor 1 (RXFP1), stably expressed on human embryonic kidney cells (HEK-RXFP1) (UniProt Q9HBX9); assay: cell-based or functional assay
[3] = target: T1, relaxin family peptide receptor 1 (RXFP1) (Homo sapiens, UniProt Q9HBX9); assay: HEK-RXFP1 cAMP reporter gene assay; type: cell-based
T1 construct: expressed in transfected cells; host or cells: HEK (human embryonic kidney) cells stably expressing RXFP1, with pCRE beta-galactosidase reporter
T1 sequence (Q9HBX9 1-757): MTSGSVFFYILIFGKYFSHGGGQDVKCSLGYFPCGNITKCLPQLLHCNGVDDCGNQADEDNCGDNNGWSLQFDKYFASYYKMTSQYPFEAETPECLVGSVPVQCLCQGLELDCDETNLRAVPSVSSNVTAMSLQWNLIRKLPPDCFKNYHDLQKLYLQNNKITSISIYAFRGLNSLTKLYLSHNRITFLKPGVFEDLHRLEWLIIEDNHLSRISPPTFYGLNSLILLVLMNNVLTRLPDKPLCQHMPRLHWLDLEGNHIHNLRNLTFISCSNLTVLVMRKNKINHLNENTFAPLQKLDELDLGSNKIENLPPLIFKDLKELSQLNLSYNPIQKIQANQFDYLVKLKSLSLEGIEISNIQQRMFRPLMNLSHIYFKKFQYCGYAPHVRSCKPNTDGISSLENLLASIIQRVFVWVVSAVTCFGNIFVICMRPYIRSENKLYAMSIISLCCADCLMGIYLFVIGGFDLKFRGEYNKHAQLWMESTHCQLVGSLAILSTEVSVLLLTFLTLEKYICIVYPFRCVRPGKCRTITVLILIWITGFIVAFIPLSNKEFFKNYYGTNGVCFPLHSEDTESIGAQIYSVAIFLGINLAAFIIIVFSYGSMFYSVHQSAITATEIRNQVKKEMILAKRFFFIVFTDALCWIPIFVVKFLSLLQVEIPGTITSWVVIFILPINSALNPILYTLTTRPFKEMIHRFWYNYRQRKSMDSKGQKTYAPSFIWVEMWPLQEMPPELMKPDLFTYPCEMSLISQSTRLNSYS
Protocol: HEK-RXFP1 cAMP Reporter Gene Assay
B7-33 activity at RXFP1 was assessed using a cAMP reporter gene assay as previously described (Scott et al. J. Biol. Chem. 2006, 281:34942-3495) with slight modification. PLGA B7-33 well plate coatings, and peptide controls in the absence of PLGA (dried peptide), were compared to solubilized B7-33 solution standards ([…]) and H2 relaxin (10 nM). Wells were seeded (25,000 cells per well, 100 μL) with dispersed HEK-RXFP1-pCRE reporter cells and incubated for 6 hours. Cells were then lysed and the reporter gene stimulated β-galactosidase activity was measured using a colorimetric substrate to evaluate the relative cAMP responses. Ligand-induced cAMP stimulation was expressed as a % of maximal response to H2 relaxin. Each data point was measured in triplicate and each experiment conducted independently at least three separate times.

Compound: CC(C)Oc1ccccc1C(=O)Nc1ccccc1C(=O)Nc1cccc(S(=O)(=O)C(F)(F)F)c1 [ML290]
in vivo half-life [1]: approximately 8 hours

EC50, cAMP reporter gene assay (beta-galactosidase, colorimetric) in HEK-RXFP1 cells; B7-33 peptide solution control [2]: 1000 nM
EC50, cAMP reporter gene assay (beta-galactosidase, colorimetric) in HEK-RXFP1 cells; PLGA-free dried peptide control [2]: 1000 nM
Compound: B7-33 peptide (single B chain peptide analogue of H2 relaxin)

EC50 ([3]; cAMP reporter gene (β-galactosidase), HEK-RXFP1 cells, 6 hours incubation): 1000 nM
Compound: VIKLSGRELVRAQIAISGMSTWSKRSL-NH2 [B7-33]
retained activity against the RXFP1 receptor after drying/oxidation ([3]; HEK-RXFP1 cell assay (FIG. 2), oxidized species of B7-33 observed by MALDI): retains activity against the RXFP1 receptor

Compound: recombinant human relaxin 2
in vivo half-life [1]: 40 min
